Data published in ChEMBL document CHEMBL3639216, “Compounds and method for treatment of HIV” (2015).

Target: Gag-Pol polyprotein (Human immunodeficiency virus type 1 group M subtype A (isolate U455)(HIV-1), UniProt P24740)
Experiment: Integrase Assay: The effect of each compound on HIV integrase activity was assayed using the HIV-1 Integrase Assay Kit version 2.0, catalogue number EZ-1700 obtained from XpressBio Life Science Products. Immediately prior to the start of the assay, both compounds were dissolved in dimethyl sulfoxide (DMSO) and used immediately in the HIV integration assay. The assay was performed according to the instructions listed by the manufacturer (XpressBio Life Science Products, Maryland, USA). In brief, the required streptavidin-coated strip wells were coated with DS oligo and placed overnight at 4° C. The plates were then incubated with integrase and followed by the addition of test articles at the desired concentration. The plates were developed using the supplied HRP antibody and TMB peroxidase substrate as per the manufacturer's instructions. The reactions were stopped with TMB stop solution and immediately read (<10 min) using a VICTOR XXX. The absorbance of each well was read at 450 nm for 0.5 sec.

Gag-Pol polyprotein, sequence (P24740 1141-1428 limits assumed): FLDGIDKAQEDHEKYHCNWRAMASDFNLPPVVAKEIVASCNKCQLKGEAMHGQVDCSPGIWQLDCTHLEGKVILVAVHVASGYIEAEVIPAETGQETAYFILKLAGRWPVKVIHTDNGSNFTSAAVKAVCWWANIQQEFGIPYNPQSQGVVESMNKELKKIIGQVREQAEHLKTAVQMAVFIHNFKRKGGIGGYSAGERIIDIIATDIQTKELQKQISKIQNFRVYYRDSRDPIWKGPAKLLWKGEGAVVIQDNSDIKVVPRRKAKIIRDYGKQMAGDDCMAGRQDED

| SMILES | IC50 |
| --- | --- |
| Cn1cnc(-c2nnc(Cc3ccc(F)cc3)o2)c(O)/c1=N/O | 58.7 µM |
| Cn1nc(-c2nnc(Cc3ccc(F)cc3)o2)/c(=N/O)c2ncccc21 | 23.9 µM |
